This note sets out measurements from article PMC11173382, “In Vitro Investigations into the Potential Drug Interactions of Pseudoginsenoside DQ Mediated by Cytochrome P450 and Human Drug Transporters” (Molecules, 2024).

Structures are written as SMILES.

Data set [1] has as its target T1, hMDR1(P-gp) (Homo sapiens, UniProt P08183).
T1 construct: host or cells: MDCKII-MDR1
Briefly: MDCK II-MDR1 drug transport assay (3H-digoxin). The conditions noted are these: for Transport activity of P-gp (main text: percentage inhibition): negative control = 100%. Type of data set: in vitro ADME. The text has this:
Drug transporters mediate the cellular uptake and efflux of their substrates. Therefore, cell lines overexpressing a drug transporter can be utilized to investigate inhibitors of the transporter by assessing changes in substrate uptake. For each drug transporter, we selected a well-characterized inhibitor as the positive control. Radiolabeled substrates were used to indicate the decrease in transport efficiency when the drug transporters were inhibited by PDQ or the control inhibitors.
The concentrations of the control drugs and the substrates were stated in the assay details. Working solutions of the control inhibitors, the radiolabeled substrates, and each dose of PDQ were prepared at 200 times (200×) more concentrated solutions with DMSO for further dilution.
Transporter-overexpressed cell lines. Human organic anion transporter-overexpressed cell lines MDCKII-OAT1 and S2-OAT3, human organic anion transport polypeptide-overexpressed cell lines HEK293A-OATP1B1 and HEK293A-OATP1B3, human organic cation transporter 2-overexpressed cell line S2-OCT2, and human multi-drug resistance protein MDR1 (or P-gp)-overexpressed cell line MDCKII-MDR1 were gifts from Japan Fuji Biomedical Co., Ltd. (Fuji, Shizuoka Prefecture, Japan). Breast cancer resistance protein-overexpressed vesicles (sf9-BCRP vesicle) were purchased from GenoMembrane Co., Ltd. (Yokohama, Kanagawa, Japan).
All reagents were pre-warmed to 37 °C. […] The plate was incubated for 20 min. […] Each sample was replicated three times (N = 3).
In = [100 × (U − U0)/(Uc − U0)]%(3)
The results were expressed as mean ± standard deviation (SD) and analyzed with GraphPad Prism 8.0 software (CA, USA). The IC50 of PDQ was curve-fitted with the FORECAST function.

The target of data set [2] is T2, CYP2C19 (Homo sapiens, UniProt P33261).
T2 construct: tissue Corning 452117; host or cells: human liver microsomes
Briefly: CYP450 inhibition assay in human liver microsomes, CYP2C19. The class given is in vitro ADME. The note with it: HLM 0.1 mg/mL; probe S-mephenytoin 20 µM; 20 min. As to the method:
To evaluate the reliability and reproducibility of the CYP450 inhibition assay, we measured the inhibitory effects of selected positive control inhibitors of each CYP450 enzyme in human liver microsomes (HLM, Table 1, Figure 2). The potency of inhibition was estimated by observing the alteration in concentration of metabolites of CYP450 substrates (Table 1).
Reagents preparation. […] The stock solution of PDQ (10 mM) was prepared with methanol and further diluted to the range of 3 µM to 3 mM with methanol to ensure that the solvent of different PDQ samples contained the same amount (1%) of methanol.
The stock solutions of the positive control inhibitors and the probe substrates of CYP450 enzymes were prepared in methanol.
CYP450 inhibition assay. […] The assay was conducted in polypropylene 96-well plates (2.2 mL/well, Apricot Designs Inc., Covina, CA, USA).
The total volume of the reaction is 200 μL. […] The substrates and analytes were analyzed by LC-MS/MS (API4000, Applied Biosystems, Singapore; HPLC, Shimadzu, Japan). […]
Data analysis. […] The IC50 was determined by fitting the dependence of the relative remaining activity (y = Vi/V0) to the following three-parameter equation (Equation (1)). […]
For orientation: Microsomes from liver hold many membrane-bound enzymes, among them those of drug oxidation.

T1 sequence (P08183 whole entry): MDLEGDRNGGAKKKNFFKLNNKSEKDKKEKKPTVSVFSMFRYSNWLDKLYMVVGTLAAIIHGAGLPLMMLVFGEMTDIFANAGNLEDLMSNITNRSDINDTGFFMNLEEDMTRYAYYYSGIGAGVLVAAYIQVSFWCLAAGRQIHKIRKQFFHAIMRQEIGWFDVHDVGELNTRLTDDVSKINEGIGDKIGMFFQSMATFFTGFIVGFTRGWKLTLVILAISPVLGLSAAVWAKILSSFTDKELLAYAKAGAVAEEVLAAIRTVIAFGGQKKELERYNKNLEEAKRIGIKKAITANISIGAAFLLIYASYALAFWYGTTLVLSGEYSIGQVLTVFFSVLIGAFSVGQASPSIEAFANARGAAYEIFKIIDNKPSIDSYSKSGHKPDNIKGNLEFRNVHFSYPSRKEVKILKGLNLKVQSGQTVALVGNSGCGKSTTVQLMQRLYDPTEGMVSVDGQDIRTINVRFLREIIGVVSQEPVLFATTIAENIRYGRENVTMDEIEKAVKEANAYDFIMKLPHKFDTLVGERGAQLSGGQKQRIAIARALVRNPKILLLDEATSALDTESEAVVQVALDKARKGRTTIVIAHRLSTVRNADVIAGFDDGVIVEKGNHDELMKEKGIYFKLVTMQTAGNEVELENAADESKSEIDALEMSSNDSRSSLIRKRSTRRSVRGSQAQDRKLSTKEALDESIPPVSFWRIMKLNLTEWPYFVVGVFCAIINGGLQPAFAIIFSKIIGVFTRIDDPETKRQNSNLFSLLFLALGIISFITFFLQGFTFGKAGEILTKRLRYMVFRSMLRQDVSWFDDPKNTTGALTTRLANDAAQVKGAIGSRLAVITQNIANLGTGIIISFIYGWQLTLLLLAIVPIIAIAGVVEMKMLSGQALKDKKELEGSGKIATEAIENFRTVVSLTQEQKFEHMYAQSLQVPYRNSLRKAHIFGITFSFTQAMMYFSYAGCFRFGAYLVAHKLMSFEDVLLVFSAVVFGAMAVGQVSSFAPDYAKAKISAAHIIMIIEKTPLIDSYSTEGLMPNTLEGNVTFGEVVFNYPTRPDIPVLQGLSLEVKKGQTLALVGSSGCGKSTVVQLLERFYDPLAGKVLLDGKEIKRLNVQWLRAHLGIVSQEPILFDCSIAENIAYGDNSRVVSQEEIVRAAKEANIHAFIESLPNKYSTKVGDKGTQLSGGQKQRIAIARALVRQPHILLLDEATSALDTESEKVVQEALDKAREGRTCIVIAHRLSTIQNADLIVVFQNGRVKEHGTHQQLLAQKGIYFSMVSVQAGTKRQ
T2 sequence (P33261 whole entry): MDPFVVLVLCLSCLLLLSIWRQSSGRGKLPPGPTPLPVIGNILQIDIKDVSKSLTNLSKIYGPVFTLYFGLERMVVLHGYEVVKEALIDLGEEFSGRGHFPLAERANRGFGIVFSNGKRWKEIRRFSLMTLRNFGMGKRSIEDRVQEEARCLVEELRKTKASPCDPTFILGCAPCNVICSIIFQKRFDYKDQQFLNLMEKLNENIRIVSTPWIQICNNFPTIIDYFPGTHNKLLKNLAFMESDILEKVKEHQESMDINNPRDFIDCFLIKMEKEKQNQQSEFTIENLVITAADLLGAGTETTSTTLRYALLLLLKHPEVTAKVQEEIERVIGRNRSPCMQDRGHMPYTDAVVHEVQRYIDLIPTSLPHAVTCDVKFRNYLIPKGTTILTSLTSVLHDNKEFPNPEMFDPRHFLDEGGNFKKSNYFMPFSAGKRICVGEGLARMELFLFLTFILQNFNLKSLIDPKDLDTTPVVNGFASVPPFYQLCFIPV

As a reminder, the IC50 is the concentration that gives 50% inhibition. The low end stands for greater potency, the high end for weaker potency. In the case of `CC(C)(O)[C@@H]1CC[C@@](C)([C@H]2CC[C@]3(C)[C@@H]2[C@H](O)C[C@@H]2[C@@]4(C)CC[C@H](O)C(C)(C)[C@@H]4CC[C@]23C)O1` [PDQ, (20S,24S)-dammar-20,24-epoxy-3β, 12β, 25-triol], the IC50 in data set [1] (MDCKII-MDR1, 25 μM 3H-digoxin, 15 min) is 410 nM; in data set [2], 698 nM. Besides, the “Transport activity of P-gp (main text: percentage inhibition)” value is given as 57.5±7.1% in data set [1] (inhibitor 0.1 μM), 57.0±9.2% in data set [1] (inhibitor 0.3 μM), 30.8±6.4% in data set [1] (inhibitor 1 μM) and 23.2±7.1% in data set [1] (inhibitor 3 μM).
